Experimental findings from EP3827825A1, “USE OF 3, 4-DIARYLPYRAZOLES AS ANTIBACTERIAL AGENTS” (Wageningen Universiteit, priority 2019, dated 2021) are described below.

In assay [1] the test system is S. aureus Newman. Nature of the assay: Minimal inhibitory concentration (MIC), double-dilution in broth, OD600. The assay is classed as cell-based, Staphylococcus aureus Newman. As to conditions: unit assumed. The method, boiled down:
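Twofold broth dilution series of compound from a DMSO stock, against S. aureus Newman from a 1:100-diluted overnight culture. Plates were incubated for 24 hours, then read at OD600. The MIC is the lowest concentration showing no growth.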

In assay [2] the test system is S. suis. The assay is described as above. In kind it is cell-based, Streptococcus suis. The settings on record: unit assumed. The method, boiled down:
(§1)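 MICs came from two-fold broth dilutions from 5 mg/mL DMSO stocks, with 100-fold-diluted overnight cultures incubated overnight/24 h; growth was read at OD600 and the MIC taken as the lowest concentration without growth. For M. marinum, Middlebrook 7H9 broth was used with 3 days at 30 °C.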

Assay [3] has as its system P. multocida. The description is as above. The settings on record: unit assumed. The assay is classed as cell-based, Pasteurella multocida. A digest of the protocol:
as §1

Assay [4] concerns M. marinum. Nature of the assay: Minimal inhibitory concentration (MIC), Middlebrook 7H9 broth, 3 days at 30 °C. In kind it is cell-based, Mycobacterium marinum. As to conditions: unit assumed. The method, boiled down:
as §1

Assay [5] deals with E. coli JW5503. In kind it is cell-based, Escherichia coli. The settings on record: unit assumed. The method, boiled down:
as §1

Assay [6] has as its system E. faecium Van A. As to the kind of experiment: Minimal inhibitory concentration (MIC), double-dilution in broth, OD600. In kind it is cell-based, Enterococcus faecium. As to conditions: unit assumed. A digest of the protocol:
as §1

Assay [7] has as its system HEK293. Nature of the assay: Cell toxicity, Alamar blue assay, 24 hours exposure. The assay is classed as cell-based. The settings on record: for IC50: Homo sapiens. The method, boiled down:
(§2)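 Alamar blue (resazurin→resorufin) viability in NRK-52E and HEK293 cells after 24 h exposure to HKI compounds at 0.39–500 µg/mL in serum-free medium. Compounds were removed, dye added for 45 min, fluorescence read. Mostly single measurements.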
(In general: The colour change of resazurin is a common sign of viable cells or microbes.)

Assay [8] deals with NRK-52E. The description is as above. The assay is classed as cell-based. The settings on record: for IC50: Rattus norvegicus, read-out: IC50 NRK-52E (50 mg/mL stock). A digest of the protocol:
as §2

The mark [9] stands for this setting: HEK293, read-out: IC50 HEK293 (5 mg/mL stock).
The mark [10] stands for this setting: HEK293, read-out: IC50 HEK293 (50 mg/mL stock).

Converted amounts (≈) assume the structure as drawn. Where two headings read alike, the source gives them in different places.

`CCOc1ccc(-c2n[nH]c(C(F)(F)F)c2-c2ccccc2OC)c(O)c1` [May-20, 5-ethoxy-2-[4-(2-methoxyphenyl)-5-(trifluoromethyl)-1∼{H}-pyrazol-3-yl]phenol] yielded an MIC S. aureus Newman in assay [1] of 6.25 µg/mL (≈ 16.5 µM). Besides, the MIC S. suis in assay [2] is 6.25 µg/mL (≈ 16.5 µM). Also, the MIC P. multocida in assay [3] was determined as 50 µg/mL (≈ 132 µM). For the same molecule, in assay [4], the MIC M. marinum amounted to 25 µg/mL (≈ 66.1 µM). In assay [5], this molecule displayed an MIC E. coli JW5503 of 3.13 µg/mL (≈ 8.27 µM). In addition, the MIC E. faecium Van A in assay [6] was found to be 12.5 µg/mL (≈ 33 µM). For the same molecule, the IC50 in assay [7] (setting [9]) was 2.1 µg/mL (≈ 5.55 µM); in assay [8], ~17.6 µg/mL (≈ 46.5 µM).

In assay [1], `Oc1cc(OCc2ccccc2)ccc1-c1[nH]nc(C(F)(F)F)c1-c1ccccc1` [May-24, 5-benzoxy-2-[4-phenyl-5-(trifluoromethyl)-1∼{H}-pyrazol-3-yl]phenol] yielded an MIC S. aureus Newman of 1.56 µg/mL (≈ 3.8 µM). The molecule also registered an MIC S. suis in assay [2] of 3.13 µg/mL (≈ 7.63 µM). The MIC P. multocida in assay [3] is > 50 µg/mL. The MIC M. marinum in assay [4] came to 25 µg/mL (≈ 60.9 µM). Also, the MIC E. coli JW5503 in assay [5] turned out to be 25 µg/mL (≈ 60.9 µM). This molecule gave an MIC E. faecium Van A in assay [6] of 1.56 µg/mL (≈ 3.8 µM). The IC50 in assay [7] (setting [10]) was 4.8 µg/mL (≈ 11.7 µM); in assay [8], ~3.86 µg/mL (≈ 9.41 µM).

In assay [1], `COc1ccc(-c2c(-c3ccc(OCC(=O)NN)cc3O)n[nH]c2C(F)(F)F)cc1` [May-17, 2-[3-hydroxy-4-[4-(4-methoxyphenyl)-5-(trifluoromethyl)-1∼{H}-pyrazol-3-yl]phenoxy]acetohy drazide] registered an MIC S. aureus Newman of 25 µg/mL (≈ 59.2 µM). In addition, the MIC S. suis in assay [2] came to 25 µg/mL (≈ 59.2 µM). Also, the MIC P. multocida in assay [3] is > 50 µg/mL. Further, the MIC M. marinum in assay [4] is > 50 µg/mL. Besides, the MIC E. coli JW5503 in assay [5] was 6.25 µg/mL (≈ 14.8 µM). The molecule also came in with an MIC E. faecium Van A in assay [6] of 25 µg/mL (≈ 59.2 µM). For the same molecule, the IC50 in assay [7] (setting [9]) came to 15 µg/mL (≈ 35.5 µM); in assay [8], 22 µg/mL (≈ 52.2 µM).

`Oc1cc(OCc2ccccc2)ccc1-c1n[nH]c(C(F)(F)F)c1-c1ccc(Br)cc1` [May-15, 5-benzoxy-2-[4-(4-bromophenyl)-5-(trifluoromethyl)-1∼{H}-pyrazol-3-yl]phenol] showed an MIC S. aureus Newman in assay [1] of 1.56 µg/mL (≈ 3.19 µM). Also, in assay [2], the MIC S. suis was determined as 3.13 µg/mL (≈ 6.4 µM). For the same molecule, the MIC P. multocida in assay [3] was > 50 µg/mL. Moreover, the MIC M. marinum in assay [4] is 12.5 µg/mL (≈ 25.5 µM). The MIC E. coli JW5503 in assay [5] is > 50 µg/mL. Also, the MIC E. faecium Van A in assay [6] was 3.13 µg/mL (≈ 6.4 µM). Moreover, the IC50 in assay [7] (setting [10]) turned out to be 6.9 µg/mL (≈ 14.1 µM); in assay [8], 5.13 µg/mL (≈ 10.5 µM).

`NNC(=O)COc1ccc(-c2n[nH]c(C(F)(F)F)c2-c2ccc(Br)cc2)c(O)c1` [May-12, 2-[4-[4-(4-bromophenyl)-5-(trifluoromethyl)-1∼{H}-pyrazol-3-yl]-3-hydroxy-phenoxy]acetohydrazide] came in with an MIC S. aureus Newman in assay [1] of 12.5 µg/mL (≈ 26.5 µM). In assay [2], this molecule gave an MIC S. suis of 6.25 µg/mL (≈ 13.3 µM). This molecule also displayed an MIC P. multocida in assay [3] of 50 µg/mL (≈ 106 µM). Also, in assay [4], the MIC M. marinum is > 50 µg/mL. This molecule showed an MIC E. coli JW5503 in assay [5] of 6.25 µg/mL (≈ 13.3 µM). Also, the MIC E. faecium Van A in assay [6] was 12.5 µg/mL (≈ 26.5 µM). Further, the results for the IC50 in assay [7] (setting [9]) and in assay [8] were 7.04 µg/mL (≈ 14.9 µM) and 27.2 µg/mL (≈ 57.7 µM), respectively.

`Oc1ccc(-c2n[nH]c(C(F)(F)F)c2-c2ccc(Br)cc2)c(O)c1` [AND-1, 4-[4-(4-bromophenyl)-5-(trifluoromethyl)-1∼{H}-pyrazol-3-yl]resorcinol] had an MIC S. aureus Newman in assay [1] of 3.13 µg/mL (≈ 7.84 µM). Besides, the MIC S. suis in assay [2] worked out at 12.5 µg/mL (≈ 31.3 µM). In addition, in assay [3], the MIC P. multocida was 25 µg/mL (≈ 62.6 µM). For the same molecule, in assay [4], the MIC M. marinum was > 50 µg/mL. In addition, the MIC E. coli JW5503 in assay [5] amounted to 1.56 µg/mL (≈ 3.91 µM). In assay [6], this molecule gave an MIC E. faecium Van A of 12.5 µg/mL (≈ 31.3 µM). In assay [7] (HEK293, 5 mg/mL stock), the “IC50 HEK293 (5 mg/mL stock)” value is given as 6.94. The “IC50 HEK293 (50 mg/mL stock)” value in assay [7] (HEK293, 50 mg/mL stock) worked out at 14.7. In assay [8] (50 mg/mL stock), the “IC50 NRK-52E (50 mg/mL stock)” value is reported as “∼3.86”.

`CCOc1ccc(-c2[nH]nc(C(F)(F)F)c2-c2ccc(Cl)cc2)c(O)c1` [May-27, 2-[4-(4-chlorophenyl)-5-(trifluoromethyl)-1∼{H}-pyrazol-3-yl]-5-ethoxy-phenol] gave an MIC S. aureus Newman in assay [1] of 3.13 µg/mL (≈ 8.18 µM). The molecule further showed an MIC S. suis in assay [2] of 3.13 µg/mL (≈ 8.18 µM). In addition, the MIC P. multocida in assay [3] turned out to be 25 µg/mL (≈ 65.3 µM). In assay [4], this molecule gave an MIC M. marinum of 50 µg/mL (≈ 131 µM). The MIC E. coli JW5503 in assay [5] was determined as 3.13 µg/mL (≈ 8.18 µM). In assay [6], this molecule gave an MIC E. faecium Van A of 3.13 µg/mL (≈ 8.18 µM). The IC50 was determined as 10.8 µg/mL (≈ 28.3 µM) in assay [7] (setting [9]), 118 µg/mL (≈ 309 µM) in assay [7] (setting [10]) and 181 µg/mL (≈ 472 µM) in assay [8].

With `Cc1noc(-c2ccc(O)cc2O)c1-c1ccc(Br)cc1` [AND-3, 4-[4-(4-bromophenyl)-3-methyl-isoxazol-5-yl]resorcinol], the MIC S. aureus Newman in assay [1] was 25 µg/mL (≈ 72.2 µM). In assay [2], this molecule displayed an MIC S. suis of 50 µg/mL (≈ 144 µM). The MIC P. multocida in assay [3] came out at 50 µg/mL (≈ 144 µM). The MIC M. marinum in assay [4] is > 50 µg/mL. The molecule also returned an MIC E. coli JW5503 in assay [5] of 6.25 µg/mL (≈ 18.1 µM). The MIC E. faecium Van A in assay [6] worked out at 0.78 µg/mL (≈ 2.25 µM). The IC50 was 12.2 µg/mL (≈ 35.2 µM) in assay [7] (setting [9]), 62.9 µg/mL (≈ 182 µM) in assay [7] (setting [10]) and ~354 µg/mL (≈ 1020 µM) in assay [8].
